Experiments:
Format in all cases: functional
Escherichia coli [1] = experiment: Antimicrobial activity against carbapenem-resistant Escherichia coli PU96 deficient in TEM-1, CTX-M-14, CMY-2, ompC/F by CLSI method
Klebsiella pneumoniae [2] = experiment: Antimicrobial activity against Klebsiella pneumoniae CY1T expressing SHV-11, DHA-1 by CLSI method
Escherichia coli [3] = experiment: Antimicrobial activity against carbapenem-resistant Escherichia coli PU102 deficient in TEM-1, CTX-M-14, CMY-2, aac(6')-Ib, ompC DEc, ompF by CLSI method
Klebsiella pneumoniae [4] = experiment: Antimicrobial activity against carbapenem-resistant Klebsiella pneumoniae PU105 deficient TEM-1, SHV-12, CTX-M-14, DHA-1, qnrB10/B4-like, aac(6')-Ib-cr, ompK35/36 by CLSI method
Klebsiella pneumoniae [5] = experiment: Antimicrobial activity against carbapenem-resistant Klebsiella pneumoniae ZJ70 deficient in KPC-2, SHV-11, CTX-M-14, ompK35/36 by CLSI method
Klebsiella pneumoniae [6] = experiment: Antimicrobial activity against carbapenem-resistant Klebsiella pneumoniae PU3 deficient in DHA-1, aac(6')-Ib-cr, ompK35/36 by CLSI method
Klebsiella pneumoniae [7] = experiment: Antimicrobial activity against carbapenem-resistant Klebsiella pneumoniae ZJ71 deficient in KPC-2, TEM-1, SHV-11, CTX-M-14, ompK35 by CLSI method
Klebsiella pneumoniae [8] = experiment: Antimicrobial activity against carbapenem-resistant Klebsiella pneumoniae SX67 deficient in SHV-2, CTX-M-14, DHA-1, qnrB6/S1, aac(6')-Ib-cr, ompK35/36 by CLSI method
Enterobacter cloacae [9] = experiment: Antimicrobial activity against carbapenem-resistant Enterobacter cloacae GX56 deficient in ompC and expressing low levels of ompF DE by CLSI method
Enterobacter cloacae [10] = experiment: Antimicrobial activity against carbapenem-resistant Enterobacter cloacae NJ89 deficient in CTX-M-14, ompC/F by CLSI method
Enterobacter cloacae [11] = experiment: Antimicrobial activity against carbapenem-resistant Enterobacter cloacae RJ94 deficient in IMP-4, TEM-1, CTX-M-3, ompC by CLSI method
Escherichia coli [12] = experiment: Antimicrobial activity against Escherichia coli ZJ87T expressing KPC-2 by CLSI method
Citrobacter freundii [13] = experiment: Antimicrobial activity against Citrobacter freundii SZ63 expressing IMP-4, qnrS1by CLSI method
Klebsiella pneumoniae [14] = experiment: Antimicrobial activity against Klebsiella pneumoniae GZ64 expressing IMP-4, ompK35/36 by CLSI method
Enterobacter cloacae [15] = experiment: Antimicrobial activity against carbapenem-resistant Enterobacter cloacae SZ92 deficient in IMP-4, TEM-1, CTX-M-14, DHA-1, qnrB10/B4-like, aac(6')-Ib, ompC by CLSI method
Klebsiella pneumoniae [16] = experiment: Antimicrobial activity against carbapenem-resistant Klebsiella pneumoniae PU4 deficient in SHV-1, DHA-1, ompK35/36 by CLSI method
Klebsiella pneumoniae [17] = experiment: Antimicrobial activity against Klebsiella pneumoniae ZJ68T expressing CTX-M-15 by CLSI method
Klebsiella pneumoniae [18] = experiment: Antimicrobial activity against Klebsiella pneumoniae ZJ71T expressing KPC-2 by CLSI method
Escherichia coli [19] = experiment: Antimicrobial activity against Escherichia coli PU101T expressing CMY-2 by CLSI method
Escherichia coli [20] = experiment: Antimicrobial activity against carbapenem-resistant Escherichia coli PU101 deficient in TEM-1, CTX-M-14, CMY-2, ompC by CLSI method
Enterobacter cloacae [21] = experiment: Antimicrobial activity against carbapenem-resistant Enterobacter cloacae SZ93 deficient in ompC by CLSI method
Klebsiella pneumoniae [22] = experiment: Antimicrobial activity against carbapenem-resistant Klebsiella pneumoniae CY1 deficient in SHV-11, DHA-1, ompK35/36 by CLSI method
Escherichia coli [23] = experiment: Antimicrobial activity against Escherichia coli PU60T expressing CMY-2 by CLSI method
Klebsiella pneumoniae [24] = experiment: Antimicrobial activity against Klebsiella pneumoniae ZJ99T expressing KPC-2, CTX-M-3, qnrS1 by CLSI method
Escherichia coli [25] = experiment: Antimicrobial activity against Escherichia coli HX74T expressing CTX-M-3 by CLSI method
Klebsiella pneumoniae [26] = experiment: Antimicrobial activity against carbapenem-resistant Klebsiella pneumoniae GZ84 deficient in SHV-11, aac(6')-Ib-cr, ompK35 by CLSI method
Klebsiella pneumoniae [27] = experiment: Antimicrobial activity against Klebsiella pneumoniae WH97 expressing SHV-33, aac(6')-Ib, ompK35 DE by CLSI method
Klebsiella pneumoniae [28] = experiment: Antimicrobial activity against Klebsiella pneumoniae ZJ99 expressing KPC-2, CTX-M-3, qnrS1, ompK35 DE by CLSI method
Klebsiella pneumoniae [29] = experiment: Antimicrobial activity against Klebsiella pneumoniae GZ64T expressing IMP-4 by CLSI method
Klebsiella pneumoniae [30] = experiment: Antimicrobial activity against Klebsiella pneumoniae FZ47T expressing IMP-8, TEM-1, CTX-M-14, qnrB2, aac(6')-Ib by CLSI method
Klebsiella pneumoniae [31] = experiment: Antimicrobial activity against carbapenem-resistant Klebsiella pneumoniae FZ47 deficient in IMP-8, TEM-1, SHV-11, CTX-M-14, qnrB2, aac(6')-Ib, ompK35/36 by CLSI method
Klebsiella pneumoniae [32] = experiment: Antimicrobial activity against carbapenem-resistant Klebsiella pneumoniae PU104 deficient in TEM-1, SHV-11, CTX-M-15, qnrS1, ompK35/36 by CLSI method
Citrobacter freundii [33] = experiment: Antimicrobial activity against Citrobacter freundii SZ62 expressing IMP-4, TEM-1, CMY-2, qnrS1, aac(6')-Ib-cr by CLSI method
Klebsiella pneumoniae [34] = experiment: Antimicrobial activity against Klebsiella pneumoniae WH76 expressing IMP-4, TEM-1, SHV-14, CTX-M-3, qnrS1 by CLSI method
Klebsiella pneumoniae [35] = experiment: Antimicrobial activity against carbapenem-resistant Klebsiella pneumoniae FZ49 deficient in IMP-8, TEM-1, SHV-11, CTX-M-14, qnrB2, aac(6')-Ib, ompK35/36 by CLSI method
Escherichia coli [36] = experiment: Antimicrobial activity against carbapenem-resistant Escherichia coli PU60 deficient in TEM-1, CMY-2, ompC/F by CLSI method
Enterobacter cloacae [37] = experiment: Antimicrobial activity against carbapenem-resistant Enterobacter cloacae NJ88 deficient in CTX-M-14, ompC/F by CLSI method
Enterobacter cloacae [38] = experiment: Antimicrobial activity against carbapenem-resistant Enterobacter cloacae NJ90 deficient in CTX-M-14, ompC/F by CLSI method

**Q.** What does the source list for POLYMYXIN B?
**A.** MIC (Escherichia coli [1]): 0.5 µg/mL; MIC (Klebsiella pneumoniae [2]): 0.25 µg/mL; MIC (Escherichia coli [3]): 0.5 µg/mL; MIC (Klebsiella pneumoniae [4]): 32 µg/mL; MIC (Klebsiella pneumoniae [5]): 0.5 µg/mL; MIC (Klebsiella pneumoniae [6]): 0.5 µg/mL; MIC (Klebsiella pneumoniae [7]): 1 µg/mL; MIC (Klebsiella pneumoniae [8]): 1 µg/mL; MIC (Enterobacter cloacae [9]): 0.5 µg/mL; MIC (Enterobacter cloacae [10]): 0.5 µg/mL; MIC (Enterobacter cloacae [11]): 0.5 µg/mL; MIC (Escherichia coli [12]): 0.25 µg/mL; MIC (Citrobacter freundii [13]): 0.5 µg/mL; MIC (Klebsiella pneumoniae [14]): 0.5 µg/mL; MIC (Enterobacter cloacae [15]): 0.5 µg/mL; MIC (Klebsiella pneumoniae [16]): 0.5 µg/mL; MIC (Klebsiella pneumoniae [17]): 0.5 µg/mL; MIC (Klebsiella pneumoniae [18]): 0.5 µg/mL; MIC (Escherichia coli [19]): 0.25 µg/mL; MIC (Escherichia coli [20]): 0.5 µg/mL; MIC (Enterobacter cloacae [21]): > 32 µg/mL; MIC (Klebsiella pneumoniae [22]): 1 µg/mL; MIC (Escherichia coli [23]): 0.25 µg/mL; MIC (Klebsiella pneumoniae [24]): 0.25 µg/mL; MIC (Escherichia coli [25]): 0.25 µg/mL; MIC (Klebsiella pneumoniae [26]): 0.5 µg/mL; MIC (Klebsiella pneumoniae [27]): 0.5 µg/mL; MIC (Klebsiella pneumoniae [28]): 1 µg/mL; MIC (Klebsiella pneumoniae [29]): 0.5 µg/mL; MIC (Klebsiella pneumoniae [30]): 0.25 µg/mL; MIC (Klebsiella pneumoniae [31]): 1 µg/mL; MIC (Klebsiella pneumoniae [32]): 0.5 µg/mL; MIC (Citrobacter freundii [33]): 0.5 µg/mL; MIC (Klebsiella pneumoniae [34]): 1 µg/mL; MIC (Klebsiella pneumoniae [35]): 1 µg/mL; MIC (Escherichia coli [36]): 0.5 µg/mL; MIC (Enterobacter cloacae [37]): 0.5 µg/mL; MIC (Enterobacter cloacae [38]): 0.5 µg/mL

From ChEMBL document CHEMBL1212738, “Phenotypic and genotypic characterization of Enterobacteriaceae with decreased susceptibility to carbapenems: results from large hospital-based surveillance studies in China” (2010)
